The text below walks through data of ChEMBL document CHEMBL2146470, “Novel Carboxamide-Based Allosteric MEK Inhibitors: Discovery and Optimization Efforts toward XL518 (GDC-0973)” (ACS Med Chem Lett, 2012).

Some results are limits rather than exact numbers.

One series deals with Rattus norvegicus. Description: Dose normalised AUC (0 to t) in Sprague-Dawley rat at 5 mg/kg, po. As to conditions: in vivo. On the set-up: dose 5 mg/kg, route oral. Type of series: ADME, organism-based.
Series [1] can be described thus: Drug metabolism in human liver microsomes at 15 uM after 30 mins. The format is ADME, Microsome. The note with it: read-out: Drug metabolism. In general terms: Liver microsomes are a subcellular fraction often used to study metabolism.
Series [2] in a line: Apparent permeability across MDCK cells. The format is ADME, cell-based, Canis lupus familiaris. As to conditions: dog.
A short description of series [3]: Half life in Sprague-Dawley rat at 5 mg/kg, po. Details: dose 5 mg/kg, route oral. The format is ADME, organism-based. As to conditions: in vivo.
A short description of series [4]: Oral bioavailability in Sprague-Dawley rat at 5 mg/kg. The format is ADME, organism-based. The note with it: in vivo.
Series [5] can be described thus: Clearance in Sprague-Dawley rat at 5 mg/kg, po. On the set-up: dose 5 mg/kg, route oral. The note with it: in vivo. The format is ADME, organism-based.
The nature of series [6]: Drug metabolism in rat liver microsomes at 15 uM after 30 mins. Type of series: ADME, Microsome. The note with it: read-out: Drug metabolism.
For series [7], the target named is Dual specificity mitogen-activated protein kinase kinase; MEK1/2 (Homo sapiens, UniProt P36507+Q02750).
Description: Inhibition of MEK-mediated ERK T202/Y204 phosphorylation in human MDA-MB-231T cells after 1 hr by immunoblotting
Series [8] has as its target Dual specificity mitogen-activated protein kinase kinase 1 (Homo sapiens, UniProt Q02750).
Description: Inhibition of MEK1-mediated ERK2 T202/Y204 phosphorylation using biotinylated MBP as substrate preincubated for 30 mins measured after 100 mins by cRAF-MEK-ERK enzyme coupled assay
Series [9] is described as follows: Plasma concentration in nude NCr mouse xenografted with human MDA-MB-231T cells at 30 mg/kg, po measured after 2 hrs by LC-MS analysis. The format is ADME, organism-based. Details: dose 30 mg/kg, route oral. A general note: A xenograft is tissue or cells of one species grown in another, often human tumour cells in immunodeficient mice.
In series [10] the test system is Mus musculus. Description: Inhibition of MEK-mediated ERK T202/Y204 phosphorylation in nude NCr mouse brain xenografted with human MDA-MB-231T cells at 30 mg/kg, po after 2 hrs by immunoblotting. The format is functional.
A short description of series [11]: Drug uptake in brain of nude NCr mouse xenografted with human MDA-MB-231T cells at 30 mg/kg, po measured after 24 hrs by LC-MS analysis. Type of series: ADME, organism-based. On the set-up: dose 30 mg/kg, route oral. The note with it: read-out: Drug uptake.
Series [12] deals with Mus musculus. Description: Inhibition of MEK-mediated ERK T202/Y204 phosphorylation in human MDA-MB-231T cells xenografted in nude NCr mouse tumor at 30 mg/kg, po after 24 hrs by immunoblotting. Type of series: functional.
Series [13] can be described thus: Drug uptake in brain of nude NCr mouse xenografted with human MDA-MB-231T cells at 30 mg/kg, po measured after 2 hrs by LC-MS analysis. Type of series: ADME, organism-based. On the set-up: dose 30 mg/kg, route oral. The note with it: read-out: Drug uptake.
The nature of series [14]: Drug uptake in tumor of nude NCr mouse xenografted with human MDA-MB-231T cells at 30 mg/kg, po measured after 24 hrs by LC-MS analysis. The note with it: read-out: Drug uptake. Type of series: ADME, organism-based, Neoplasm. Details: dose 30 mg/kg, route oral.
Series [15] deals with Mus musculus. Description: Inhibition of MEK-mediated ERK T202/Y204 phosphorylation in human MDA-MB-231T cells xenografted in nude NCr mouse tumor at 30 mg/kg, po after 2 hrs by immunoblotting. Type of series: functional.
Series [16] is described as follows: Drug uptake in tumor of nude NCr mouse xenografted with human MDA-MB-231T cells at 30 mg/kg, po measured after 2 hrs by LC-MS analysis. On the set-up: dose 30 mg/kg, route oral. The note with it: read-out: Drug uptake. The format is ADME, organism-based, Neoplasm.
Series [17] can be described thus: Plasma concentration in nude NCr mouse xenografted with human MDA-MB-231T cells at 30 mg/kg, po measured after 24 hrs by LC-MS analysis. Type of series: ADME, organism-based. Details: dose 30 mg/kg, route oral.
Series [18] deals with Mus musculus. Description: Inhibition of MEK-mediated ERK T202/Y204 phosphorylation in po dosed nude NCr mouse brain xenografted with human MDA-MB-231T cells from 2 to 24 hrs by immunoblotting. Type of series: functional.
The test system of series [19] is Mus musculus. Description: Inhibition of MEK-mediated ERK T202/Y204 phosphorylation in nude NCr mouse brain xenografted with human MDA-MB-231T cells at 30 mg/kg, po after 24 hrs by immunoblotting. The format is functional.
The test system of series [20] is Brain. Description: Drug metabolism in brain of nude NCr mouse xenografted with human MDA-MB-231T cells assessed as 3,4-difluoro-2-(2-fluoro-4-iodophenylamino)benzoic acid level at 30 mg/kg, po measured after 24 hrs by LC-MS analysis. Type of series: ADME, organism-based. Details: dose 30 mg/kg, route oral. The note with it: in vivo.
Series [21] is described as follows: Drug metabolism in tumor of nude NCr mouse xenografted with human MDA-MB-231T cells assessed as 3,4-difluoro-2-(2-fluoro-4-iodophenylamino)benzoic acid level at 30 mg/kg, po measured after 24 hrs by LC-MS analysis. On the set-up: dose 30 mg/kg, route oral. The note with it: in vivo. The format is ADME, organism-based, Neoplasm.
In series [22] the test system is Plasma. Description: Drug metabolism in plasma of nude NCr mouse xenografted with human MDA-MB-231T cells assessed as 3,4-difluoro-2-(2-fluoro-4-iodophenylamino)benzoic acid level at 30 mg/kg, po measured after 24 hrs by LC-MS analysis. The note with it: in vivo. On the set-up: dose 30 mg/kg, route oral. The format is ADME, organism-based.
Series [23] has as its system Plasma. Description: Drug metabolism in plasma of nude NCr mouse xenografted with human MDA-MB-231T cells assessed as 3,4-difluoro-2-(2-fluoro-4-iodophenylamino)benzoic acid level at 30 mg/kg, po measured after 2 hrs by LC-MS analysis. Details: dose 30 mg/kg, route oral. As to conditions: in vivo. Type of series: ADME, organism-based.
Series [24] in a line: Drug metabolism in tumor of nude NCr mouse xenografted with human MDA-MB-231T cells assessed as 3,4-difluoro-2-(2-fluoro-4-iodophenylamino)benzoic acid level at 30 mg/kg, po measured after 2 hrs by LC-MS analysis. The note with it: in vivo. Details: dose 30 mg/kg, route oral. The format is ADME, organism-based, Neoplasm.
For series [25], the system named is Brain. Description: Drug metabolism in brain of nude NCr mouse xenografted with human MDA-MB-231T cells assessed as 3,4-difluoro-2-(2-fluoro-4-iodophenylamino)benzoic acid level at 30 mg/kg, po measured after 2 hrs by LC-MS analysis. Type of series: ADME, organism-based. The note with it: in vivo. On the set-up: dose 30 mg/kg, route oral.

Dual specificity mitogen-activated protein kinase kinase 1, sequence (Q02750 whole entry): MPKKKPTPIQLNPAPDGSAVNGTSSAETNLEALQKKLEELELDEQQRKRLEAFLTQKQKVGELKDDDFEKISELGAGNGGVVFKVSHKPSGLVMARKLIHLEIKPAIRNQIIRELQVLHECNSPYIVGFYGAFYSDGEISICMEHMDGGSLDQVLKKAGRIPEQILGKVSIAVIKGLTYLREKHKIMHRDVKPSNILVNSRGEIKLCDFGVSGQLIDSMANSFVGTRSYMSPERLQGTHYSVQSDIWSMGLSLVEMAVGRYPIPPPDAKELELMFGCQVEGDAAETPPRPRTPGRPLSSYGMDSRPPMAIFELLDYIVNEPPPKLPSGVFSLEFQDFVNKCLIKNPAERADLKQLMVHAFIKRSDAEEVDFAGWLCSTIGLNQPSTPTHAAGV

In general, Papp refers to the rate of passage across a membrane or cell layer, normalised by area and donor concentration. For orientation: half-life means how long it takes for the measured level to halve. A high value points to slow decline. One may read the CL/F as clearance divided by bioavailability, as obtained after extravascular dosing. As to `CCNCC1(O)CN(C(=O)c2ccc(F)c(F)c2Nc2ccc(I)cc2F)C1`, the AUCt/dose with Rattus norvegicus stood at 0.85 µM·h/mg/kg. The metabolised at 0.5 h, 15 µM came out at 46.3% in series [1] and 31.5% in series [6]. Besides, in [2], the Papp was found to be 20.7 ×10⁻⁶ cm/s. In series [3], the half-life was 324 min. The bioavailability in series [4] amounted to 101%. The same compound gave a CL/F in [5] of 35 mL/min/kg.

For orientation: IC50 means the concentration at which inhibition is half-maximal. Lower therefore signals greater potency. For `O=C(c1ccc(F)c(F)c1Nc1ccc(I)cc1F)N1CC(O)(CN2CCOCC2)C1`, the concentration for half-maximal inhibition (IC50) is 331 nM in series [7] and 1710 nM in series [8].

Take `NC(=O)C1(O)CN(C(=O)c2ccc(F)c(F)c2Nc2ccc(I)cc2F)C1`: the values for the IC50 in series [7] and in series [8] were 81 nM and 220 nM, respectively.

On to `CC(C)(C)NCC1(O)CN(C(=O)c2ccc(F)c(F)c2Nc2ccc(I)cc2F)C1`, for which the concentration for half-maximal inhibition (IC50) in series [7] stood at 11 nM; in series [8], 4.8 nM.

Regarding `C[C@@H](N)C1(O)CN(C(=O)c2ccc(F)c(F)c2Nc2ccc(I)cc2F)C1`, the 50% inhibitory concentration (IC50) in series [7] was 164 nM; in [8] it was 16 nM.

In turn, `O=C(c1ccc(F)c(F)c1Nc1ccc(I)cc1F)N1CC(O)C1` registered an AUCt/dose in the series with Rattus norvegicus of 0.05 µM·h/mg/kg. Also, the metabolised at 0.5 h, 15 µM in [1] was determined as 30.8%; in series [6], 80.1%. Also, in series [2], the Papp worked out at 39.9 ×10⁻⁶ cm/s. In series [3], this compound showed a half-life of 90 min. In addition, the bioavailability in series [4] amounted to 19%. The CL/F in series [5] is 139 mL/min/kg.

Consider `C[C@H](N)C1(O)CN(C(=O)c2ccc(F)c(F)c2Nc2ccc(I)cc2F)C1`, for which, in the series on Rattus norvegicus, the AUCt/dose was determined as 1.03 µM·h/mg/kg. For the same compound, the values for the metabolised at 0.5 h, 15 µM in series [1] and in [6] were 2.6% and -4.5%, respectively. In series [2], the apparent permeability coefficient (Papp) is 9.9 ×10⁻⁶ cm/s. Also, the figures for the half-inhibitory concentration (IC50) in series [7] and in series [8] were 46 nM and 5.2 nM, respectively. For the same compound, in series [3], the half-life is 684 min. Moreover, the bioavailability in series [4] came to 58%. For the same compound, the apparent clearance CL/F in [5] was 13.3 mL/min/kg.

In general, inhibition in vivo refers to how much of the control response was suppressed. A lower inhibition in vivo goes with little suppression. Broadly, the ED50 is the midpoint of the dose-response relation. Low readings indicate greater potency, high ones weaker potency. In turn, `NCC1(O)CN(C(=O)c2ccc(F)c(F)c2Nc2ccc(I)cc2F)C1` displayed an AUCt/dose in the series on Rattus norvegicus of 1.57 µM·h/mg/kg. The concentration at 2 h was 2400 nM in series [9], 730 nM in [13] and 7.36 µM in [16]. Also, the inhibition in vivo at 30 mg/kg turned out to be 23% in the series on Mus musculus [10], 44% with Mus musculus [12], 27% in the series on Mus musculus [15] and 17% in the series with Mus musculus [19]. In addition, the concentration at 24 h in [11] stood at 1240 nM; in series [14], 26.9 µM; in [17] it was 30 nM. Also, in series [2], the apparent permeability (Papp) was found to be 4.3 ×10⁻⁶ cm/s. Moreover, the IC50 in series [7] was 57 nM; in series [8], 6.6 nM. In series [3], the half-life was 546 min. Also, the 50% effective dose (ED50) in the series with Mus musculus [18] was more than 30 mg/kg. The bioavailability in series [4] was 78%. This compound gave a CL/F in series [5] of 12.6 mL/min/kg. The metabolised at 0.5 h, 15 µM in [6] is 16.2%.

For `O=C(NCCC(O)CO)c1ccc(F)c(F)c1Nc1ccc(I)cc1F` (stereo not drawn), the IC50 in series [7] was 128 nM; in [8] it was 801 nM.

`CC(C)NCC1(O)CN(C(=O)c2ccc(F)c(F)c2Nc2ccc(I)cc2F)C1` registered an AUCt/dose in the series with Rattus norvegicus of 0.25 µM·h/mg/kg. In addition, the metabolised at 0.5 h, 15 µM in [1] came to 35.8%; in series [6], 40.5%. Moreover, in [2], the Papp worked out at 21 ×10⁻⁶ cm/s. In series [3], this compound gave a half-life of 294 min. In [4], the bioavailability was found to be 86%. The CL/F in series [5] was 99.3 mL/min/kg.

Turning to `O=C(O)c1ccc(F)c(F)c1Nc1ccc(I)cc1F`, the Drug metabolism is less than 0.005 µM in the series on Brain [20]; less than 0.005 µM in [21]; 0.21 µM with Plasma [22]; 0.01 µM in the series with Plasma [23]; less than 0.005 µM in [24]; less than 0.005 µM in the series with Brain [25]. Also, the IC50 in series [7] turned out to be 102 nM; in series [8], 19.5 nM.

Regarding `O=C(c1ccc(F)c(F)c1Nc1ccc(I)cc1F)N1CC(O)(CO)C1`, the figures for the IC50 in [7] and in series [8] were 29 nM and 27 nM, respectively.

As to `CN(C)CC1(O)CN(C(=O)c2ccc(F)c(F)c2Nc2ccc(I)cc2F)C1`, the IC50 in [7] turned out to be 14 nM; in series [8] it was 5.1 nM.

With `O=C(c1ccc(F)c(F)c1Nc1ccc(I)cc1F)N1CC(O)(CN2CCCC2)C1`, the IC50 was determined as 50 nM in series [7] and 7.6 nM in series [8].
